One block for each compound: values may come before it.
How the values were obtained:
[1] = Solubility as a function of time in hexanol/n-heptane (1:39 v:v), UV-spectrophotometry; assay type: physicochemical; conditions: 25±1° C., UV at 227 nm, hydrobromide
Description: It is known to a person skilled in the art that the difference in the relative solubility of two polymorphs is independent from the solvent system, if an “ideal solution”, meaning a solution which is not too concentrated, is present. (see e.g. Kuhnert-Brandstätter M., Burger A., Pharmazeutische Industrie, 1972, 34, Nr. 3, 187-190; Samuel H. Yalowsky, Solubility and Solubilization in Aqueous Media, ACS, Oxford University Press 1999, ISBN: 0-8412-3576-7, p. 98). Therefore the solubilities of vortioxetine hydrobromide forms alpha and beta of WO 2007/144005 A1 and the compound of the present invention were determined in a mixture of hexanol and n-heptane. […] (see example 4 of the present invention).
The solubilities as a function of time were determined for vortioxetine hydrobromide polymorphs alpha, beta and the crystalline compound of the present invention, respectively. Therefore approximately 100 mg of each polymorph (polymorph alpha and beta were obtained according to the procedures disclosed in WO 2007/144005 A1, the crystalline compound of the present invention was obtained according to the procedure disclosed in example 1 herein) were stirred in 50 mL of a mixture of hexanol/n-heptane (1:39=v:v) at 25±1° C. Subsequently 5 mL were taken from each suspension after 1, 5, 10, 15, 30 and 60 minutes with the aid of a volumetric pipette and filtered. The concentrations of the obtained solutions were determined directly by UV-spectrophotometry (apparatus: Shimadzu UV1800) at 227 nm.
The determination of the extinction coefficient was performed with polymorph delta as a calibration substance.

[2] = Gravimetric moisture sorption/desorption cycle; assay type: physicochemical
Description: In addition, an active pharmaceutical ingredient is preferably non-hygroscopic in order to ensure the chemical and physical quality during the storage of the active substance itself. Furthermore, an active pharmaceutical ingredient is preferably non-hygroscopic in order to ensure the chemical and physical quality also during the shelf-life of a solid finished dosage form containing the active substance. Special and expensive packaging can then be avoided. […] For instance, in example 4f of WO 2007/144005 A1, it is mentioned that form gamma absorbs about 4.5% water when exposed to high relative humidity and in example 4h of the same application it is stated that the water content of the hemihydrate strongly depends on the relative humidity. For instance, the water content of the hemihydrate at 95% relative humidity is about 3.7% according to example 4h of WO 2007/144005.
Gravimetric moisture sorption/desorption curves were acquired using a SPS-11 moisture sorption analyzer (MD Messtechnik, Ulm, D). The measurement cycle was started at 43% relative humidity (RH) and decreased in 10% steps down to 0% RH; up to 95% RH, down to 0% RH and up to 43% RH. The equilibrium condition for each step was set to a mass constancy of ±0.01% over 30 min. The temperature was 25±0.1° C.

physchem = conditions: water
Description: (§1) Using the water solubility values of polymorphs alpha and beta provided in WO 2007/144005 A1 and the herein determined relative solubilities of polymorphs alpha, beta and delta the water solubility of the crystalline compound of the present invention can be calculated.

[3] = Water solubility calculated from relative solubilities and WO 2007/144005 A1 water solubility data; conditions: calculation with water solubility value of polymorph alpha (2.0 mg/mL) from WO 2007/144005 A1, hydrobromide
Description: as §1

[4] = exposed to high relative humidity; example 4f of WO 2007/144005 A1; cited from earlier work
[5] = Solid-state stability of the hydrate at room temperature; assay type: physicochemical; conditions: not stable
Description: The novel hydrate of vortioxetine hydrobromide is not stable at room temperature and converts to form alpha of WO 2007/144005 A1 within about 4 weeks.

- absolute solubility in hexanol/n-heptan (1:39 = v:v) ([1]; listed as present invention): 48 µg/mL
- hygroscopicity ([2]; according to the specifications of the European Pharmacopoeia): non-hygroscopic
- water content ([2]; relative humidity of about 0%, 25° C.): about 0.3%
- water content ([2]; relative humidity of about 80%, 25° C.): about 0.5%
- water content ([2]; up to a relative humidity of about 95%): less than 0.7%
- solubility (physchem): 3800 µg/mL
- calculated water solubility 1) ([3]; listed as compound of the present invention): 3000 µg/mL
Compound: Br.Cc1ccc(Sc2ccccc2N2CCNCC2)c(C)c1 [polymorph delta, 1-{2-[(2,4-dimethylphenyl)sulfanyl]phenyl}piperazine hydrobromide]

- absolute solubility in hexanol/n-heptan (1:39 = v:v) ([1]; listed as beta): 15 µg/mL
- calculated water solubility 1) [3]: 1000 µg/mL
Compound: Br.Cc1ccc(Sc2ccccc2N2CCNCC2)c(C)c1 [polymorph beta, 1-{2-[(2,4-dimethylphenyl)sulfanyl]phenyl}piperazine hydrobromide, reference compound]

The next lines start with the compound.

Compound: Br.Cc1ccc(Sc2ccccc2N2CCNCC2)c(C)c1 [form gamma, 1-{2-[(2,4-dimethylphenyl)sulfanyl]phenyl}piperazine hydrobromide]
- water absorbed [4]: about 4.5%

Compound: Br.Cc1ccc(Sc2ccccc2N2CCNCC2)c(C)c1 [polymorph alpha, 1-{2-[(2,4-dimethylphenyl)sulfanyl]phenyl}piperazine hydrobromide]
- absolute solubility in hexanol/n-heptan (1:39 = v:v) ([1]; listed as alpha): 31 µg/mL

Compound: Cc1ccc(Sc2ccccc2N2CCNCC2)c(C)c1
- time to conversion to form alpha [5]: ≤ 4 weeks
